Experimental data taken from ChEMBL document CHEMBL3621161, “Conformationally restrained carbamoylcholine homologues. Synthesis, pharmacology at neuronal nicotinic acetylcholine receptors and biostructural considerations” (Eur J Med Chem, 2015).
Activity calls are given as the source filed them. The calls are words filed in the database; no cut-off is given here.

How the values were obtained:
[1] = biological target: Neuronal acetylcholine receptor; alpha4/beta2 (Rattus norvegicus, UniProt P09483+P12390); assay: Displacement of [3H]epibatidine from rat neuronal acetylcholine receptor subunit alpha4beta2 expressed in HEK293 cell membranes incubated for 4 hrs by scintillation counting method
[2] = biological target: Neuronal acetylcholine receptor; alpha4/beta4 (Rattus norvegicus, UniProt P09483+P12392); assay: Displacement of [3H]epibatidine from rat neuronal acetylcholine receptor subunit alpha4beta4 expressed in HEK293 cell membranes incubated for 4 hrs by scintillation counting method
[3] = biological target: T1, Neuronal acetylcholine receptor; alpha3/beta4 (Rattus norvegicus, UniProt P04757+P12392); assay: Displacement of [3H]epibatidine from rat neuronal acetylcholine receptor subunit alpha3beta4 expressed in HEK293 cell membranes incubated for 4 hrs by scintillation counting method; conditions: for pKi: hek293
[4] = biological target: Neuronal acetylcholine receptor subunit alpha-4/beta-2 (Mus musculus) (UniProt Q9ERK7+O70174); assay: Agonist activity at mouse neuronal acetylcholine receptor subunit alpha4beta2 expressed in HEK293T cells at 300 uM by FMP assay; type: cell-based; conditions: HEK-293T
[5] = biological target: T1, Neuronal acetylcholine receptor; alpha3/beta4; assay: Agonist activity at rat neuronal acetylcholine receptor subunit alpha3beta4 expressed in HEK293 cells at 1 mM by FMP assay; type: cell-based; conditions: for pEC50: hek293
[6] = biological target: T1, Neuronal acetylcholine receptor; alpha3/beta4; assay: Agonist activity at rat neuronal acetylcholine receptor subunit alpha3beta4 expressed in HEK293 cells by FMP assay; type: cell-based
[7] = biological target: Neuronal acetylcholine receptor subunit alpha-4/beta-2 (Mus musculus, UniProt O70174+Q9ERK7); assay: Agonist activity at mouse neuronal acetylcholine receptor subunit alpha4beta2 expressed in HEK293T cells by FMP assay; type: cell-based, HEK-293T
[8] = biological target: Neuronal acetylcholine receptor; alpha3/beta4 (Rattus norvegicus) (UniProt P04757+P12392); assay: Agonist activity at rat neuronal acetylcholine receptor subunit alpha3beta4 expressed in HEK293 cells at 300 uM by FMP assay; type: cell-based

Chain of Neuronal acetylcholine receptor subunit alpha-4/beta-2 (Mus musculus) (O70174 31-629 partner limits assumed): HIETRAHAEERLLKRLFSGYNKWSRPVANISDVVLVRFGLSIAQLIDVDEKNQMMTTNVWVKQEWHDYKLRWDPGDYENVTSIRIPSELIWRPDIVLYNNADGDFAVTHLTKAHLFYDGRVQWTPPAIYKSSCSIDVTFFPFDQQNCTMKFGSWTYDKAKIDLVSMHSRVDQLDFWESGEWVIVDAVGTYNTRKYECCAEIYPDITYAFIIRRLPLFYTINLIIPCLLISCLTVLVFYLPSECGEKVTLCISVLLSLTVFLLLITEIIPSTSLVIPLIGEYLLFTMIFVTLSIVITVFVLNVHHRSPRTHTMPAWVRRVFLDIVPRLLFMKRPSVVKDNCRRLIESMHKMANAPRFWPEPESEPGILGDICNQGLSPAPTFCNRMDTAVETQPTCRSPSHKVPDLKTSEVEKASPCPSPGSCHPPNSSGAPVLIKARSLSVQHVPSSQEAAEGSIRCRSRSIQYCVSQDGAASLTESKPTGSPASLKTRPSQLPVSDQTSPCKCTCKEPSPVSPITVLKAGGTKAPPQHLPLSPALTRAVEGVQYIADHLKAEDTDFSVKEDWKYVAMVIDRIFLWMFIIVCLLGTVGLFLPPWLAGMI
Chain of Neuronal acetylcholine receptor subunit alpha-4/beta-2 (Mus musculus) (Q9ERK7 26-501 limits assumed): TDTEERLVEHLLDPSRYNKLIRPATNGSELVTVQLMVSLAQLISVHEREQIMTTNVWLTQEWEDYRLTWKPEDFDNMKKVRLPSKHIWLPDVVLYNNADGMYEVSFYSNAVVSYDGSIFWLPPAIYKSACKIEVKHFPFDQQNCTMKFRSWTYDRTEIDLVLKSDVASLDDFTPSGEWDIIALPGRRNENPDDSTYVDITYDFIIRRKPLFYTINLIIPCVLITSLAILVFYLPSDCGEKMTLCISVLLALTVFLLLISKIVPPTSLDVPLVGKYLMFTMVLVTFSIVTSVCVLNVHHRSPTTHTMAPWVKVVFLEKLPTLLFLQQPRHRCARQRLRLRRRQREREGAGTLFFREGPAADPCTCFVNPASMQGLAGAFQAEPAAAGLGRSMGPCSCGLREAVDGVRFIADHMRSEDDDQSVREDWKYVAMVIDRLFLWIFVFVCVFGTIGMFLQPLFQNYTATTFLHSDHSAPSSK
T1 sequence (P04757 whole entry): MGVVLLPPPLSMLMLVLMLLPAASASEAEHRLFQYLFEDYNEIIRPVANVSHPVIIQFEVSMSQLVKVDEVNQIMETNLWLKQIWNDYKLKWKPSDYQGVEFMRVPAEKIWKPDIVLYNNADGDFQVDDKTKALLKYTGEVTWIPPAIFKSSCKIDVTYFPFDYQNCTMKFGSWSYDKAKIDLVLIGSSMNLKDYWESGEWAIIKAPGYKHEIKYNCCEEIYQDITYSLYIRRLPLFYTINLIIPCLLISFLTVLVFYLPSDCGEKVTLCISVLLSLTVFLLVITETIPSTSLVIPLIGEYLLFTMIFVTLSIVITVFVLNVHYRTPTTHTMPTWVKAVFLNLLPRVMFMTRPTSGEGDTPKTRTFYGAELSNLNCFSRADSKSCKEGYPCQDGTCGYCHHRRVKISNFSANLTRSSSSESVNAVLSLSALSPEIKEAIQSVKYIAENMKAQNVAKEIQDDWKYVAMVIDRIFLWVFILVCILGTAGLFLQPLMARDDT
T1 sequence (P12392 whole entry): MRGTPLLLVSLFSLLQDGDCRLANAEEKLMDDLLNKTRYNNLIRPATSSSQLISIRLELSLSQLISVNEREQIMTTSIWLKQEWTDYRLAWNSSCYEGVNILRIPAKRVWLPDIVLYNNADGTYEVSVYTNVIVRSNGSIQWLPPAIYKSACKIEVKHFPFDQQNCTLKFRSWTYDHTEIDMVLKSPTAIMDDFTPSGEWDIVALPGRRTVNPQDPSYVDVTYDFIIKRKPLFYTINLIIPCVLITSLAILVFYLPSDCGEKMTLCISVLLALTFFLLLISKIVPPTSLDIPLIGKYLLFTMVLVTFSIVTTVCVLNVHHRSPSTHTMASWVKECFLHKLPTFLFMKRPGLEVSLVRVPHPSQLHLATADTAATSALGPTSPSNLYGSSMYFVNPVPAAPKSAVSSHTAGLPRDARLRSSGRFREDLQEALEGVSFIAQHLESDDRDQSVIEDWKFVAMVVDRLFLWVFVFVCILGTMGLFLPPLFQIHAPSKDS
Chain of Neuronal acetylcholine receptor; alpha4/beta4 (P09483 whole entry): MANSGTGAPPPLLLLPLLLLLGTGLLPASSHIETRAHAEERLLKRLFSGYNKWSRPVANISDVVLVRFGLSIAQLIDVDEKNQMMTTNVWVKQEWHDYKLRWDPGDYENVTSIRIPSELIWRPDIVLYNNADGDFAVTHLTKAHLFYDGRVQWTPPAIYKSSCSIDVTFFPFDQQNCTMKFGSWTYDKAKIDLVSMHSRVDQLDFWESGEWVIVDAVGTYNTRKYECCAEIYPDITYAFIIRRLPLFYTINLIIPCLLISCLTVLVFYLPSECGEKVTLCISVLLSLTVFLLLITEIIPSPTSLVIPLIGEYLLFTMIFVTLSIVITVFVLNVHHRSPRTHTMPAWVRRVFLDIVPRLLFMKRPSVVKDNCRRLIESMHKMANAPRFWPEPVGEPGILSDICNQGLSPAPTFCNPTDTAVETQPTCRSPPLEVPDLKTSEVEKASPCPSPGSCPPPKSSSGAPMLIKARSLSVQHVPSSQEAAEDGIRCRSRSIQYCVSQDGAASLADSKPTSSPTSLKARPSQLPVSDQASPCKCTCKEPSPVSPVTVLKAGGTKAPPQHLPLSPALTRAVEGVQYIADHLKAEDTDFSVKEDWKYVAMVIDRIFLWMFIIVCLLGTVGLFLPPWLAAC
Chain of Neuronal acetylcholine receptor; alpha4/beta4 (P12392 whole entry): as the sequence (P12392 whole entry) above
Chain of Neuronal acetylcholine receptor; alpha4/beta2 (P09483 whole entry): as the sequence (P09483 whole entry) above
Chain of Neuronal acetylcholine receptor; alpha4/beta2 (P12390 whole entry): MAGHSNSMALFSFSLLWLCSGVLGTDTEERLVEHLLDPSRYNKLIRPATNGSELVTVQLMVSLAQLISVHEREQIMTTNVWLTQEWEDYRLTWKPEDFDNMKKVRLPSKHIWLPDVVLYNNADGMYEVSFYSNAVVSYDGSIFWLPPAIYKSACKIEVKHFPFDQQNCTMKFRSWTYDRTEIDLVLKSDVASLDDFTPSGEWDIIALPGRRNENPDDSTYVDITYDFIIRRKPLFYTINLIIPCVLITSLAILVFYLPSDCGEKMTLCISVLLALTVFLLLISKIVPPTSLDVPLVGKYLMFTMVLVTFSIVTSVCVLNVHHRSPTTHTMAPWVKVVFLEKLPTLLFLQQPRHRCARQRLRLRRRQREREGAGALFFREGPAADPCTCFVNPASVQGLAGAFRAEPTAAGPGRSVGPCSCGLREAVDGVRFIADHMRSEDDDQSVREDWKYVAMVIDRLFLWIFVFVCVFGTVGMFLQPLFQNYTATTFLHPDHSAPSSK
Chain of Neuronal acetylcholine receptor subunit alpha-4/beta-2 (Q9ERK7 whole entry): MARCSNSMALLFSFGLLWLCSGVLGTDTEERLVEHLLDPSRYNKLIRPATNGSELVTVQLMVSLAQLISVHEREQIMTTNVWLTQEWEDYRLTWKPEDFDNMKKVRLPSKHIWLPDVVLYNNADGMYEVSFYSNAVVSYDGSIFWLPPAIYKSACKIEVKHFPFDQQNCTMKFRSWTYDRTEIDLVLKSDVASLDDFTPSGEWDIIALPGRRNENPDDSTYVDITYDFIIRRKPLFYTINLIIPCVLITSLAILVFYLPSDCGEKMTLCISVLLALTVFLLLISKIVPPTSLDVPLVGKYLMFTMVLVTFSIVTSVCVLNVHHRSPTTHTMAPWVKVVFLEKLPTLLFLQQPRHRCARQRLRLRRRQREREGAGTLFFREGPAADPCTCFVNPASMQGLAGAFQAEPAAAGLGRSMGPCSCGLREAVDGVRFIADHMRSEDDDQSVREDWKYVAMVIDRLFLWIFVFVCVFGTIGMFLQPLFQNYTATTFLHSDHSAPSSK
Chain of Neuronal acetylcholine receptor subunit alpha-4/beta-2 (O70174 whole entry): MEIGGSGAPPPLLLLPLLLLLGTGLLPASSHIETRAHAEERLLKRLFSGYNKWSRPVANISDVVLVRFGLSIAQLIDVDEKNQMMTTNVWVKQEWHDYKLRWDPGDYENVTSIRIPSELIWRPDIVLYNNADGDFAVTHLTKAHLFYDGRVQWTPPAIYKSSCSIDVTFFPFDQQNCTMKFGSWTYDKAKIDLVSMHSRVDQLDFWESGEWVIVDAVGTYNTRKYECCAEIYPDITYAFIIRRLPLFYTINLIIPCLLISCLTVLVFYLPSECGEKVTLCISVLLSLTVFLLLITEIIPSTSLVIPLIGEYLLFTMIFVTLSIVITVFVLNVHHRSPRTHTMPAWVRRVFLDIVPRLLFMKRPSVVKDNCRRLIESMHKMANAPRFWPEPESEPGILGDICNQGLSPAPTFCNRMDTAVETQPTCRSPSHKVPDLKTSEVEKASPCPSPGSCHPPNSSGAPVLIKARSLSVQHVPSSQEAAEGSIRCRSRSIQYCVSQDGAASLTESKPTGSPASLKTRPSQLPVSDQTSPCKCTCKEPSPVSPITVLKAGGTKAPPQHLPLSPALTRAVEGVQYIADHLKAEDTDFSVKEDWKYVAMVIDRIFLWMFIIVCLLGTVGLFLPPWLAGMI

## CNC(=O)OC[C@H]1C[C@@H]1N(C)C.O=C(O)C(=O)O (racemic)
[1]
  Ki: 300 µM
[2]; read-out: Ki
  Ki: 1000 µM
[3]
  pKi: < 3
[3]; read-out: Ki
  Ki: > 1000 µM

## CNC(=S)N1CCN(C)CC1
[1]
  Ki: 19 µM
[2]; read-out: Ki
  Ki: 500 µM
[3]
  pKi: < 3
[3]; read-out: Ki
  Ki: > 1000 µM

## CN(C)C(=O)N1CCCNCC1
[1]
  Ki: 11 µM
[2]; read-out: Ki
  Ki: 50 µM
[3]; read-out: Ki
  Ki: 300 µM

## CC(CCOC(=O)N(C)C)N(C)C (configuration not stated)
[2]; read-out: pKi (converted)
  Ki: 0.02 µM
[3]; read-out: pKi (converted)
  Ki: 0.02 µM

## CNC(=S)N1CCC(N(C)C)C1 (racemic)
[1]
  Ki: 2.3 µM
[2]; read-out: Ki
  Ki: 100 µM
[3]; read-out: Ki
  Ki: 300 µM
[4]
  Activity: Active
[5]
  EC50: > 1 mM
  pEC50: < 3

## CCNC(=O)N1CCN(C)CC1
[1]
  Ki: 10 µM
[2]; read-out: Ki
  Ki: 100 µM
[3]; read-out: Ki
  Ki: 100 µM
[4]
  Activity: Active
[5]
  EC50: > 1 mM
  pEC50: < 3

## CCNC(=O)N1CCC(N(C)C)C1 (racemic)
[1]
  Ki: 5.7 µM
[2]; read-out: Ki
  Ki: 30 µM
[3]; read-out: Ki
  Ki: 30 µM
[4]
  Activity: Active
[6]
  EC50: 100 µM

## CN(C)C(=O)OC[C@H]1C[C@@H]1N(C)C (racemic)
[1]
  Ki: 100 µM
[2]; read-out: Ki
  Ki: 1000 µM
[3]; read-out: Ki
  Ki: 1000 µM

## CCNC(=S)N1CCN(C)CC1
[1]
  Ki: 5.8 µM
[2]; read-out: Ki
  Ki: 300 µM
[3]
  pKi: < 3
[3]; read-out: Ki
  Ki: > 1000 µM
[4]
  Activity: Active
[6]
  EC50: 100 µM

## CC(CCOC(=O)N1CCCC1)N(C)C (configuration not stated)
[7]
  EC50: 7.1 µM

## CCNC(=S)N1CCC(N(C)C)C1 (racemic)
[1]
  Ki: 1.2 µM
[2]; read-out: Ki
  Ki: 300 µM
[3]
  pKi: < 3
[3]; read-out: Ki
  Ki: > 1000 µM
[4]
  Activity: Active
[5]
  EC50: > 1 mM
  pEC50: < 3

## CN(C)C(=O)N1CCC(N(C)C)C1 (racemic)
[1]
  Ki: 6.4 µM
[2]; read-out: Ki
  Ki: 2.3 µM
[3]; read-out: Ki
  Ki: 6.4 µM
[7]
  EC50: 10 µM
[6]
  EC50: 32 µM

## CN(C)C(=O)OC[C@H]1C[C@H]1N (racemic)
[1]
  Ki: 13 µM
[2]; read-out: Ki
  Ki: 100 µM
[3]; read-out: Ki
  Ki: 300 µM

## CN(C)C(=O)OC[C@H]1C[C@H]1N(C)C (racemic)
[1]
  Ki: 1.5 µM
[2]; read-out: Ki
  Ki: 14 µM
[3]; read-out: Ki
  Ki: 14 µM
[4]
  Activity: Active
[8]
  Activity: Active

## CN1CCN(C(=O)N(C)C)CC1
[1]
  Ki: 30 µM
[2]; read-out: Ki
  Ki: 50 µM
[3]; read-out: Ki
  Ki: 50 µM

## CN(C)C(=O)C1CCNCC1
[1]
  Ki: > 1000 µM
[1]; hek293
  pKi: < 3
[2]; hek293
  pKi: < 3
[2]; read-out: Ki
  Ki: > 1000 µM
[3]
  pKi: < 3
[3]; read-out: Ki
  Ki: > 1000 µM

## CN1CCCN(C(=O)N(C)C)CC1
[1]
  Ki: 50 µM
[2]; read-out: Ki
  Ki: 300 µM
[3]; read-out: Ki
  Ki: 300 µM

## CNC(=O)OC[C@H]1C[C@H]1N(C)C (racemic)
[1]
  Ki: 2.1 µM
[2]; read-out: Ki
  Ki: 30 µM
[3]; read-out: Ki
  Ki: 50 µM
[4]
  Activity: Active
[8]
  Activity: Active
